MIC and IC50 data for three molecules are collected here from ChEMBL document CHEMBL1155743, “New bromoditerpenes from the red alga Sphaerococcus coronopifolius” (J Nat Prod, 2001).

In one test the test system is Staphylococcus aureus. The test can be described thus: Antibacterial activity against Staphylococcus aureus ATCC 6538 by disk diffusion assay. The format is functional.
A further test deals with Plasmodium falciparum. Description: Antimalarial activity against chloroquine-resistant Plasmodium falciparum FCB1 in human blood by [3H]hypoxanthine uptake. The format is functional, organism-based.

In brackets after ≈: the same amount, converted by molar mass.

On to `CC(C)[C@@H]1C=C[C@H](O)[C@H]2[C@@H]3[C@](C)(O)[C@@H](O)C[C@H](Br)[C@@]3(C)CC[C@@]21CBr`, for which, in the test on Staphylococcus aureus, the MIC (commonly the lowest concentration that inhibits growth of the organism) came out at 0.146 µM (≈ 0.0701 µg/mL). Same read-out and setting: in the case of `CC(C)[C@@H]1C=CC(=O)[C@H]2[C@@H]3[C@](C)(O)[C@@H](O)C[C@H](Br)[C@@]3(C)CC[C@]12CBr` [BROMOSPHAERONE] it was 0.104 µM (≈ 0.0497 µg/mL). On to `CC(C)[C@@H]1CC=C[C@H]2[C@H]3[C@@](C)(C=CC(=O)[C@@]3(C)O)CC[C@]12CBr` [SPHAEROCOCCENOL A], for which the concentration for half-maximal inhibition (IC50) (usually the concentration that inhibits the measured activity by half) in the test on Plasmodium falciparum came out at 1 µM.
